This passage reports Ki results from BindingDB's records for PubMed 10565829 (Loughborough University, 1999).

SMILES strings stand for the structures.

The target of assay [1] is Kappa-type opioid receptor (Cavia porcellus, UniProt P41144).
For assay [2], the target named is Mu-type opioid receptor (Cavia porcellus, UniProt P97266).
Mu-type opioid receptor, sequence (P97266 whole entry): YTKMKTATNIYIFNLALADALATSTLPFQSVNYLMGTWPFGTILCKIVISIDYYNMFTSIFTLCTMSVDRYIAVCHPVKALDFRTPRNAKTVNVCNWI

Kappa-type opioid receptor, sequence (P41144 whole entry): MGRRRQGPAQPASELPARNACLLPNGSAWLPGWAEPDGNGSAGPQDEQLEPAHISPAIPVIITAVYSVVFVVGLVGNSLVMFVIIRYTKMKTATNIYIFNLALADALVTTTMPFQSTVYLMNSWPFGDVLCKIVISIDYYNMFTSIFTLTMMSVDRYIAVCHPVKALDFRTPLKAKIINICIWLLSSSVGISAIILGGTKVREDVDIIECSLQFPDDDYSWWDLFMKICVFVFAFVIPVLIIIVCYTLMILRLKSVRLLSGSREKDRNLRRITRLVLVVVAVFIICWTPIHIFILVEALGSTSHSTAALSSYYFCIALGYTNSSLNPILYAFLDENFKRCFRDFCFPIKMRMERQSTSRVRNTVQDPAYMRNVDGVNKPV

In general, Ki refers to a dissociation constant, usually derived from enzyme kinetics or from competition with a known ligand. Read a low Ki as tighter binding. `CO[C@@]12CC[C@@]3(C[C@@H]1[C@@](C)(O)C(C)(C)C)[C@H]1Cc4ccc(O)c5c4[C@@]3(CCN1CC1CC1)[C@H]2O5` [BUPRENORPHINE]: the Ki was found to be 2 nM in assay [1] and 0.57 nM in assay [2].
